# Test results from patent publication US20260102387A1, “IMMUNOSUPPRESSIVE COMPOUNDS” (UNIVERSITÄT BASEL, priority 2022, published 2026).
# “Also recorded” adds a separate entry of the source.
# Test system: coronin 1 promoter
# Assay: EC50 analysis for coronin 1 promoter driven GFP inhibition by flow cytometry in RBL cells
# Format: cell-based
# Conditions: Amlodipine 3.125 μM, verapamil 8 μM, 48 h, flow cytometry
# Method: RBL cells that had been incubated with the indicated calcium channel blockers (amlodipine (3.125 μM) and verapamil (8 μM) concentrations for 48 h were analyzed by flow cytometry for any alteration in coronin 1 promoter driven GFP fluorescence. The results reveal no effect of calcium channel blockers on coronin 1 promoter activity (FIG. 4).
# (§1) RBL cells expressing GFP under coronin 1 promoter and optionally with RBL cells expressing RFP under CMV promoter were mixed in equal numbers and incubated with the compounds at indicated concentrations for 48-65 h and analyzed by flow cytometry for alteration in coronin 1 promoter (GFP fluorescence), CMV promoter (RFP fluorescence) values. In addition, the cells were labelled with live-dead marker for assessing cell viability status by flow cytometry. Cycloheximide (CHX) serves as positive control and DMSO serves as negative controls. Effective Concentration (EC50) values for coronin 1 promoter inhibition via GFP fluorescence analysis, non-specific promoter inhibition via CMV promoter driven-RFP fluorescence analysis and cell viability via live/dead staining as a measure for toxicity in flow cytometry for compounds (10-22 and 50a-65a) are shown in Table 6 and Table 7. Based on the EC50 analysis of the inhibition of coronin 1 promoter driven GFP fluorescence the (4S,7R)-configurated eutomers were identified (Structures FIG. 9A-C). This is exemplified for compounds containing two stereocenters by eutomers 11c and 13a. […] Subsequent EC50 evaluations (Table 7) were performed with compound 13a as standard for relative potency normalized to a value of 1.00 (relative potency calculated as [EC50 GFP inhibition 13a]/[EC50 GFP inhibition compound of interest]).
row,SMILES,coronin 1 promoter activity as assessed by GFP reduction
1,"COc1ccc(CCN(C)CCCC(C#N)(c2ccc(OC)c(OC)c2)C(C)C)cc1OC (stereo not drawn) [verapamil, reference compound]",no effect; also recorded: not inhibiting coronin 1 promoter activity
2,"CCOC(=O)C1=C(COCCN)NC(C)=C(C(=O)OC)C1c1ccccc1Cl (stereo not drawn) [Amlodipine, reference compound]",no effect

# Same assay, conditions: RBL, RBL cells, 48-65 h, flow cytometry
row,SMILES,EC50 [µM]
1,"COC(=O)C1=C(C)NC2=C(C(=O)C[C@H](c3ccccc3OC)C2)[C@H]1c1cccc(O)c1 (stereo in doubt) [11b, methyl-4-(3-hydroxyphenyl)-7-(2-methoxyphenyl)-2-methyl-5-oxo-1,4,5,6,7,8-hexahydro-3-quinolinecarboxylate]",> 36

# Same assay, conditions: [EC50 GFP inhibition 13a]/[EC50 GFP inhibition compound of interest]; 13a = 1.00
row,SMILES,rel. potency GFP inhibition
1,"CCC(CC)COC(=O)C1=C(C)NC2=C(C(=O)C[C@H](c3ccccc3OC)C2)[C@@H]1c1cccc(O)c1 [61a, 2-ethylbutyl (4S, 7R)-4-(3-hydroxyphenyl)-7-(2-methoxyphenyl)-2-methyl-5-oxo-1,4,5,6,7,8-hexahydroquinoline-3-carboxylate]",0.10
2,"COc1ccccc1[C@H]1CC(=O)C2=C(C1)NC(C)=C(C(=O)O[C@H]1CCOC1)[C@H]2c1cccc(O)c1 [50a, tetrahydrofuran-3-yl (4S, 7R)-4-(3-hydroxyphenyl)-7-(2-methoxyphenyl)-2-methyl-5-oxo-1,4,5,6,7,8-hexahydroquinoline-3-carboxylate]",0.73
3,"COc1ccccc1[C@H]1CC(=O)C2=C(C1)NC(C)=C(C(=O)OC1CCCCC1)[C@H]2c1cccc(O)c1 [57a, cyclohexyl (4S, 7R)-4-(3-hydroxyphenyl)-7-(2-methoxyphenyl)-2-methyl-5-oxo-1,4,5,6,7,8-hexahydroquinoline-3-carboxylate]",0.24
4,"COc1ccccc1[C@@H]1CC(=O)C2=C(C1)NC(C)=C(C(=O)OC1CCOCC1)[C@H]2c1cccc(O)c1 [13e, tetrahydro-2H-pyran-4-yl-4-(3-hydroxyphenyl)-7-(2-methoxyphenyl)-2-methyl-5-oxo-1,4,5,6,7,8-hexahydro-3-quinolinecarboxylate]",<0.01
5,"COc1ccccc1[C@H]1CC(=O)C2=C(C1)NC(C)=C(C(=O)OC1CCOCC1)C2c1ccc(F)c(O)c1 (mixture of isomers) [66b, tetrahydro-2H-pyran-4-yl 4-(4-fluoro-3-hydroxyphenyl)-7-(2-methoxyphenyl)-2-methyl-5-oxo-1,4,5,6,7,8-hexahydroquinoline-3-carboxylate]",0.25
6,"CCCCOC(=O)C1=C(C)NC2=C(C(=O)C[C@H](c3ccccc3OC)C2)[C@@H]1c1cccc(O)c1 [59a, butyl (4S, 7R)-4-(3-hydroxyphenyl)-7-(2-methoxyphenyl)-2-methyl-5-oxo-1,4,5,6,7,8-hexahydroquinoline-3-carboxylate]",0.18
7,"COc1ccccc1[C@H]1CC(=O)C2=C(C1)NC(C)=C(C(=O)OC1(C)CCOCC1)[C@H]2c1cccc(O)c1 [51a, 4-methyltetrahydro-2H-pyran-4-yl (4S, 7R)-4-(3-hydroxyphenyl)-7-(2-methoxyphenyl)-2-methyl-5-oxo-1,4,5,6,7,8-hexahydroquinoline-3-carboxylate]",1.13
8,"CCOCCOCCOC(=O)C1=C(C)NC2=C(C(=O)C[C@H](c3ccccc3OC)C2)[C@@H]1c1cccc(O)c1 [64a, 2-(2-ethoxyethoxy)ethyl (4S, 7R)-4-(3-hydroxyphenyl)-7-(2-methoxyphenyl)-2-methyl-5-oxo-1,4,5,6,7,8-hexahydroquinoline-3-carboxylate]",0.62
9,"COc1ccccc1[C@H]1CC(=O)C2=C(C1)NC(C)=C(C(=O)OC1CCCC1)[C@H]2c1cccc(O)c1 [56a, cyclopentyl (4S, 7R)-4-(3-hydroxyphenyl)-7-(2-methoxyphenyl)-2-methyl-5-oxo-1,4,5,6,7,8-hexahydroquinoline-3-carboxylate]",0.21
10,"COc1ccccc1C1CC(=O)C2=C(C1)NC(C)=C(C(=O)OC1CCOCC1)C2c1ccc(F)c(O)c1F (racemic) [67b, tetrahydro-2H-pyran-4-yl 4-(2,4-difluoro-3-hydroxyphenyl)-7-(2-methoxyphenyl)-2-methyl-5-oxo-1,4,5,6,7,8-hexahydroquinoline-3-carboxylate]",0.25
11,"COc1ccccc1[C@H]1CC(=O)C2=C(C1)NC(C)=C(C(=O)O[C@H]1CO[C@H]3OCC[C@H]31)[C@H]2c1cccc(O)c1 [55a, (3R,3aS,6aR)-hexahydrofuro[2,3-b]furan-3-yl (4S, 7R)-4-(3-hydroxyphenyl)-7-(2-methoxyphenyl)-2-methyl-5-oxo-1,4,5,6,7,8-hexahydroquinoline-3-carboxylate]",0.61
12,"COc1ccccc1[C@H]1CC(=O)C2=C(C1)NC(C)=C(C(=O)OCCCC(C)(C)C)[C@H]2c1cccc(O)c1 [63a, 4,4-dimethylpentyl (4S, 7R)-4-(3-hydroxyphenyl)-7-(2-methoxyphenyl)-2-methyl-5-oxo-1,4,5,6,7,8-hexahydroquinoline-3-carboxylate]",0.07
13,"COc1ccccc1[C@H]1CC(=O)C2=C(C1)NC(C)=C(C(=O)O[C@@H]1CCOC1)[C@H]2c1cccc(O)c1 [50b, tetrahydrofuran-3-yl (4S, 7R)-4-(3-hydroxyphenyl)-7-(2-methoxyphenyl)-2-methyl-5-oxo-1,4,5,6,7,8-hexahydroquinoline-3-carboxylate]",1.23
14,"COc1ccccc1[C@H]1CC(=O)C2=C(C1)NC(C)=C(C(=O)OC1CC3CCC(C1)O3)[C@H]2c1cccc(O)c1 (stereo partly drawn) [53a, 8-oxabicyclo[3.2.1]octan-3-yl (4S, 7R)-4-(3-hydroxyphenyl)-7-(2-methoxyphenyl)-2-methyl-5-oxo-1,4,5,6,7,8-hexahydroquinoline-3-carboxylate]",1.42
15,"COc1ccccc1[C@H]1CC(=O)C2=C(C1)NC(C)=C(C(=O)OC1CC(C)(C)OC(C)(C)C1)[C@H]2c1cccc(O)c1 [52a, 2,2,6,6-tetramethyltetrahydro-2H-pyran-4-yl (4S, 7R)-4-(3-hydroxyphenyl)-7-(2-methoxyphenyl)-2-methyl-5-oxo-1,4,5,6,7,8-hexahydroquinoline-3-carboxylate]",0.62
16,"COc1ccccc1[C@@H]1CC(=O)C2=C(C1)NC(C)=C(C(=O)OC1CCOCC1)[C@@H]2c1cccc(O)c1 [13d, tetrahydro-2H-pyran-4-yl-4-(3-hydroxyphenyl)-7-(2-methoxyphenyl)-2-methyl-5-oxo-1,4,5,6,7,8-hexahydro-3-quinolinecarboxylate]",0.09
17,"COc1ccccc1[C@H]1CC(=O)C2=C(C1)NC(C)=C(C(=O)OC[C@H]1CCCO1)[C@H]2c1cccc(O)c1 [12g, tetrahydro-2-furanylmethyl (4S, 7R)-4-(3-hydroxyphenyl)-7-(2-methoxyphenyl)-2-methyl-5-oxo-1,4,5,6,7,8-hexahydro-3-quinolinecarboxylate]",1.00
18,"CCCCCCOCCOCCOCCOC(=O)C1=C(C)NC2=C(C(=O)C[C@H](c3ccccc3OC)C2)[C@@H]1c1cccc(O)c1 [65a, 2-(2-(2-(hexyloxy)ethoxy)ethoxy)ethyl (4S, 7R)-4-(3-hydroxyphenyl)-7-(2-methoxyphenyl)-2-methyl-5-oxo-1,4,5,6,7,8-hexahydroquinoline-3-carboxylate]",0.12
19,"CCOC(=O)C1=C(C)NC2=C(C(=O)C[C@H](c3ccccc3OC)C2)[C@@H]1c1cccc(O)c1 [58a, ethyl (4S, 7R)-4-(3-hydroxyphenyl)-7-(2-methoxyphenyl)-2-methyl-5-oxo-1,4,5,6,7,8-hexahydroquinoline-3-carboxylate]",0.36
20,"COc1ccccc1[C@H]1CC(=O)C2=C(C1)NC(C)=C(C(=O)OC1CCCOCC1)[C@H]2c1cccc(O)c1 (mixture of isomers) [54a, oxepan-4-yl 4-(3-hydroxyphenyl)-7-(2-methoxyphenyl)-2-methyl-5-oxo-1,4,5,6,7,8-hexahydroquinoline-3-carboxylate]",0.88
21,"CCC(C)(C)COC(=O)C1=C(C)NC2=C(C(=O)C[C@H](c3ccccc3OC)C2)[C@@H]1c1cccc(O)c1 [62a, 2,2-dimethylbutyl (4S, 7R)-4-(3-hydroxyphenyl)-7-(2-methoxyphenyl)-2-methyl-5-oxo-1,4,5,6,7,8-hexahydroquinoline-3-carboxylate]",0.10
22,"COc1ccccc1[C@H]1CC(=O)C2=C(C1)NC(C)=C(C(=O)OCC(C)(C)C)[C@H]2c1cccc(O)c1 [60a, neopentyl (4S, 7R)-4-(3-hydroxyphenyl)-7-(2-methoxyphenyl)-2-methyl-5-oxo-1,4,5,6,7,8-hexahydroquinoline-3-carboxylate]",0.20
23,"COc1ccccc1[C@H]1CC(=O)C2=C(C1)NC(C)=C(C(=O)OC1CCOCC1)[C@@H]2c1cccc(O)c1 [13f, tetrahydro-2H-pyran-4-yl-4-(3-hydroxyphenyl)-7-(2-methoxyphenyl)-2-methyl-5-oxo-1,4,5,6,7,8-hexahydro-3-quinolinecarboxylate]",<0.01

# Test system: RBL cells
# Assay: Cell viability by live-dead staining (cytotoxicity), flow cytometry
# Format: cell-based, Rat
# Conditions: Rattus norvegicus, RBL, cell viability via live/dead staining, 48-65 h, read-out: EC50 Toxicity
# Method: as §1
row,SMILES,EC50 [µM]
1,"COC(=O)C1=C(C)NC2=C(C(=O)C[C@H](c3ccccc3OC)C2)[C@H]1c1cccc(O)c1 (stereo in doubt) [11b, methyl-4-(3-hydroxyphenyl)-7-(2-methoxyphenyl)-2-methyl-5-oxo-1,4,5,6,7,8-hexahydro-3-quinolinecarboxylate]",> 36
